Among the data in ChEMBL document CHEMBL2440098, “Binding mode characterization of 6α- and 6β-N-heterocyclic substituted naltrexamine derivatives via docking in opioid receptor crystal structures and site-directed mutagenesis studies: application of the 'message-address' concept in development of mu opioid receptor selective antagonists” (Bioorg Med Chem, 2013) are Ki and IC50 values, retold here.

Experiment [1] addresses T1, Mu-type opioid receptor (Homo sapiens, UniProt P35372). The experiment is described as follows: Binding affinity to wild type MOR (unknown origin) expressed in CHO cells after 15 mins by Ca2+ mobilization assay. Format: cell-based.
Experiment [2] is described as follows: Binding affinity to MOR Y210A mutant (unknown origin) expressed in CHO cells after 15 mins by Ca2+ mobilization assay. The experiment is classed as cell-based, Homo sapiens.
The target in experiment [3] is T1, Mu-type opioid receptor.

T1 sequence (P35372 whole entry): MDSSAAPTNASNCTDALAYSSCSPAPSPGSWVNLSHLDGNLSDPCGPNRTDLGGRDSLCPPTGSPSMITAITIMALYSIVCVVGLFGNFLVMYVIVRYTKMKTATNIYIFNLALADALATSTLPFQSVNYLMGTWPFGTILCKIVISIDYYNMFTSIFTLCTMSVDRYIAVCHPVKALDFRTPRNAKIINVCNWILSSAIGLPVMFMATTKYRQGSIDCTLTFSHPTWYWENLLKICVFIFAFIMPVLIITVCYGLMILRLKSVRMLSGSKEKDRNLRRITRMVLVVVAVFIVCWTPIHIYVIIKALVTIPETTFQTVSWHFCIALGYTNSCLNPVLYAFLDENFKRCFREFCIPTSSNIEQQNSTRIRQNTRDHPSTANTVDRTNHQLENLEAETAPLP

With `O=C(N[C@H]1CC[C@@]2(O)[C@H]3Cc4ccc(O)c5c4[C@@]2(CCN3CC2CC2)[C@H]1O5)c1cc2ccccc2cn1`, the Ki stood at 2.57 nM on Mu-type opioid receptor [1] and 1.57 nM in experiment [2]. In addition, the IC50 turned out to be 3.31 nM in experiment [2] and 150 nM at Mu-type opioid receptor [3].
